Test results reported in patent publication US20240041922A1, “METHODS AND COMPOSITIONS” (Monash University, priority 2020, published 2024).
Entries after “also recorded” stand apart in the source; their conditions may differ. Where two headings read alike, the source gives them in different places.

What was measured:
mmp9+/mpeg+ macrophages = test: Metronidazole ablation of mmp9-expressing macrophages, TgBAC(mmp9:EGFP-NTR); assay type: in vivo, zebrafish
Method: (§1) Cell ablation was carried out as previously described (Pisharath, H. & Parsons, M. J. in Zebrafish 133-143 (Springer, 2009)) with minor modifications. Larvae at the appropriate stage were incubated in 5-10 mM metronidazole (Mtz) (Sigma-Aldrich) in Ringer's solution and daily refreshed until experimental end point. Drug treatments were carried out by incubating 4 dpf needle stick injured larvae in 5 and 10 μM cenicriviroc (CVC) (Med Chem Express) and 5 and 10 μM maraviroc (MVC) (Med Chem Express) in Ringer's solution immediately post injury and refreshed daily.
In order to more directly implicate Cluster 2 macrophages in the regulation of regenerative muscle stem cell proliferation, we specifically ablated these cells during the repair process, using an alternative mmp9 promoter-driven transgenic line that expressed the nitroreductase enzyme fused to EGFP (TgBAC(mmp9:EGFP-NTR)^24). These larvae were subjected to a needle stab muscle injury at 4 dpf (0 dpi). At 1.75 dpi larvae were treated with 5 mM Mtz, a dosing that specifically ablated 77.94% of mmp9^+/mpeg^+-macrophages present in the injury zone (FIG. 10b-d). Specific ablation of these cells led to a significant skeletal muscle repair deficit (FIG. 3p-q) and a severe reduction in muscle stem cell proliferation to levels similar to those evident upon mpeg^+-dwelling macrophage ablation, documented above (FIG. 2f-h, FIG. 3r, FIG. 10e-g). Collectively, these analyses indicate that Cluster 2 contains a specific mmp9^+ muscle stem cell-associated, dwelling macrophage subset required for muscle stem cell proliferation during muscle regeneration

macrophages = test: Nitroreductase-mediated macrophage ablation by metronidazole, Tg(mpeg1:GAL4FF/UAS:NfsB-mCherry); assay type: in vivo, zebrafish
Method: as §1

larval zebrafish = test: Tolerability of metronidazole in larval zebrafish; assay type: in vivo; settings: 10 mM Mtz
Method: as §1

rectus femoris muscle = settings: for muscle architecture / regenerated muscle area: delivered in fibrin hydrogel, 10 days post treatment
Method: Injury: male C57BL/6J mice aged between 10-12 weeks were anesthetised and shaved on the hind left leg. A unilateral incision measuring approximately 1 cm was made exposing the underlying fascia. The left hind limb was extended and exteriorised via the incision site by retracting the surrounding tissue. A 3×4 mm full thickness segment of the rectus femoris muscle was removed. Directly after, the injury site was filled with fibrin hydrogel with or without 200 ng or 500 ng of hrNAMPT(1) (hydrogel components; 40 μl, 8 mg/ml human fibrinogen (FIB3, Enzyme Research Laboratories), 4 U/ml bovine thrombin (T4648, Sigma), 5 mM CaCl2, 17 μg/ml of aprotinin (ab146286, Abcam)) which polymerized in the defect. Then, the soft tissue was closed with stitches.
Histology: 10 days after treatment, animals were sacrificed and the wounds were harvested for histological analysis. The defect site and associated proximal and distal segment of the quadriceps muscle (including the rectus femoris, vastus medialis and vastus lateralis) were excised and embedded. Histological analysis was performed on serial paraffin sections (4 μm sections collected passing the central portion of the wound). Multiple sections were stained with Masson's Trichrome (to detect collagen deposition) and the extent of fibrosis (represented by a blue stain) was measured by histomorphometric analysis using ImageJ software (version 1.51h, National Institutes of Health, USA). To maintain uniformity between samples, the length of the vastus medialis taken at multiple depths ranging from 1.0 mm-3.0 mm serves as a reference between tissue sections to determine the depth of sectioning. For fibrotic quantification, average muscle fibrosis area at each depth was scored and normalised with the area of the rectus femoris. Total area of muscle is determined by calculating the average area of rectus femoris at each depth.
Immune cell profiling and PAX7^+ cell quantification with flow cytometry: 4, 6 or 8 days after treatment with either 0.5 μg of hrNAMPT(1) delivered by fibrin hydrogel or control fibrin hydrogel only, mice were euthanised via CO2 asphyxiation. The defect site and associated proximal and distal segment of the quadricep muscles were isolated and placed into 890 μl of complete RPMI (with 10% FBS and 2 mM Glutamax, Life Technologies). The tissue was minced with surgical scissors and 100 μl of 10 mg/ml Collagenase II (Sigma-Aldrich) and 10 μl of 10 mg/ml DNAse I (Biolabs), while 100 μl of dispase II (10 mg/ml) was added into the digestion for PAX7 acquisition. The mixture was vortexed and incubated at 37° C. for 45 min. The collagenase was then inactivated with 500 μl ice-cold PBS, 5% FBS, 5 mM EDTA. The mixture was strained subsequently through 70 μm and 40 μm filters. The cell suspension was further diluted with 1 ml complete RPMI and centrifuged for 10 min at 300× g. The supernatant was discarded and the pellet was resuspended in 250 μl complete RPMI and aliquoted into wells of a 96-well U bottom plate for antibody staining. The cell solutions were centrifuged, supernatant discarded, and washed with PBS. The cell viability stain used was 100 μl of Zombie Aqua (Biolegend) Live-Dead dye diluted in PBS (1:400 dilution) and incubated for 30 min at 4° C. The cells were then blocked with FcX (anti-CD16/32 antibodies, Biolegend, 1 μg/ml) flow cytometry buffer (PBS, 5% FBS). The cells were kept for 20 min at 4° C., washed with flow cytometry buffer and centrifuged. […]

PAX7+ satellite cells = test: Primary mouse myoblast mono- and co-cultures, PAX7+ satellite cell proliferation (EdU); assay type: cell-based; settings: for satellite cell proliferation on supplementation: myoblast monoculture (MB) and MB+3T3 co-culture, 24 h
Method: Larvae: Labelling and detection was carried out as previously described (Nguyen, P. D. et al. Muscle stem cells undergo extensive clonal drift during tissue growth via Meox1-mediated induction of G2 cell-cycle arrest. […] Cell culture: Cells were incubated for 1 h in media supplemented with 10 μM EdU. […] Cells were processed using the Click-iTTM EdU Alexa FluroTM 647 imaging Kit (Thermo Fisher) following the manufacturer's protocol. For isolation of primary mouse myoblasts, limb skeletal muscle from E17.5 C57/BL6J mice were minced and digested in 0.125% Trypsin at 37° C. for 20 min. […] Myoblasts were again depleted for fibroblasts prior to co-culturing on gelatin-coated 48 well plates in DMEM+20% FBS+10% L929-conditioned medium. 100,000 myoblasts were plated with either 7,500 MafB/c-Maf deficient (Maf-DKO) macrophages (Aziz, A., Soucie, E., Sarrazin, […]. MafB/c-Maf deficiency enables self-renewal of differentiated functional macrophages. […] For drug treatments, the media were supplemented with appropriate doses and cultured for 24 h.

[1] = test system: wound-resident muscle stem cells; test: Larval zebrafish needle stab muscle injury, wound site proliferation (EdU); assay type: in vivo
Method: 4dpf larvae were anaesthetized in 0.01% tricaine (MS-222) (Sigma-Aldrich) in Ringer's solution. Mechanical injures were targeted either to the dorsal or ventral myotome above the cloaca when the larvae is oriented dorsal to the top, anterior to the left. Needle-stick injury was carried out as previously described (Gurevich, D. B. el al. Asymmetric division of clonal muscle stem cells co-ordinate muscle regeneration in vivo. Science 353 6295 aad9969 (2016)). Briefly, the myotome was subjected to a single 30-gauge needle puncture that generates an extensive injury with many damaged muscle fibres. For laser-induced injury, anaesthetised larvae were mounted in a thin layer of 1% low-melt agarose in Ringer's solution. Injuries were carried out using a UV-nitrogen laser pulsed through a coumarin 440 nm dye cell coupled to a Zeiss Axioplan microscope (MicroPoint Laser System, Andor Technology). On average a laser injury required pulses for 5-10 sec from laser beams focused through a 40× water immersion objective. For time-lapse analysis of the immediate response to injury, muscle fibre ablations were achieved using a SIM scanner (Olympus) at 790 nm and 200 msec dwell time at 100% laser power on an Olympus FVMPE-RS upright multi-photon microscope equipped with a 25×/1.05 water immersion objective. Injury-responding macrophages were tracked using the manual tracking plugin in Fiji.
as §1
The effect of drug treatment on laser ablation muscle injury was assayed by treating larvae with 5 μM CVC for 2 h prior to injury and with larvae being maintained in the drug until experimental end point. […] Chemokine supplementation experiments were carried out in plasticware coated with 0.1% bovine serum albumin (BSA) overnight (rinsed in Ringer's solution prior to use) to minimise protein adsorption. Larvae were treated with 57 nM recombinant human visfatin (hrNAMPT(1)) (PeproTech), 57 nM recombinant murine CCL8/MCP-2 (mrCCL8) (PeproTech) and combinations with Mtz and CVC.
Larvae: Labelling and detection was carried out as previously described (Nguyen, P. D. et al. Muscle stem cells undergo extensive clonal drift during tissue growth via Meox1-mediated induction of G2 cell-cycle arrest. Cell Stem Cell 21, 107-119. e106 (2017))^55 with minor alteration. 6 dpf/2 dpi larvae were pulsed with 2.5 nM EdU (Thermo Fisher) for 1h and chased for a further 1.5 h prior to fixation. Cell culture: Cells were incubated for 1 h in media supplemented with 10 μM EdU. Following Edu pulse, C2C12 cells were fixed immediately, while primary mouse myoblast co-cultures were rinsed in PBS, replaced with media and incubated for a further 2 h following which the cells were fixed. Cells were processed using the Click-iT™ EdU Alexa Fluro™ 647 imaging Kit (Thermo Fisher) following the manufacturer's protocol.

[2] = single dose 0.5 μg in fibrin hydrogel, vs fibrin only

With `Cc1ncc([N+](=O)[O-])n1CCO` [Mtz, metronidazole] the “ablation of mmp9+/mpeg+ macrophages” value (mmp9+/mpeg+ macrophages; 5 mM Mtz at 1.75 dpi) was 77.94%, the “number of mmp9+/mpeg+ macrophages in injury zone” value (mmp9+/mpeg+ macrophages; Mtz treated) was 2.18±1.19 and the “number of mmp9-/mpeg+ macrophages in injury zone” value (mmp9+/mpeg+ macrophages; Mtz treated) was 6.65±1.50. For the same compound, the “time to start of macrophage ablation after Mtz addition” value (macrophages; 5 mM Mtz) was 3 h, the macrophage ablation (macrophages; 5 mM Mtz for 24 h from 4 dpf, trunk macrophages at 5 dpf) was 77% and the “time until majority of trunk macrophages ablated” value (macrophages; Mtz) was 10 to 13 h. The “lethality, needle stab injured larvae” value (larval zebrafish) was “significant lethality” and the “tolerability, uninjured larvae” value (larval zebrafish) was “able to tolerate”.

“Nicotinamide phosphoribosyltransferase [NAMPT]” was tested, and the “centrally nucleated muscle fibres” value (rectus femoris muscle; 6 days post treatment) was “significant increase the number of centrally nucleated de novo muscle fibres”, the “muscle architecture / regenerated muscle area” value (rectus femoris muscle) was “significantly increased the regenerated muscle area” and the “muscle architecture / regenerated muscle area” value (rectus femoris muscle; listed as hrNAMPT) was “able to fully restore muscle architecture”. For the same compound, the “decrease in average fibrotic area” value (rectus femoris muscle; [2]) was 34.76±9.32%, the “increase in average muscle area” value (rectus femoris muscle; [2]) was 3.276±0.4926 mm^2 and the “satellite cell proliferation on supplementation in presence of macrophages” value (PAX7+ satellite cells; MB+macrophage co-culture) was “did not increase satellite cell proliferation in the presence of macrophages”. For the same compound, the “satellite cell proliferation on supplementation” value (PAX7+ satellite cells) was “enhanced proliferation; also recorded: stimulates proliferation of PAX7^+ satellite cells”, the “satellite cell proliferation on supplementation” value (PAX7+ satellite cells; listed as hrNAMPT) was “able to increase the proliferation of satellite cells in MB and MB+3T3 culture conditions” and the “wound site proliferation in macrophage-ablated larvae” value ([1]; 5 mM Mtz added at 4 dpf/0 dpi) was “rescues the proliferation deficit generated by ablating macrophages; also recorded: rescues the proliferative deficit that occurs upon macrophage ablation; also recorded: functioned to rescue wound site proliferation in macrophage-ablated larvae”. For the same compound, the “wound site proliferation, NAMPT together with CVC” value ([1]; Ccr5 inhibited by CVC) was “failed to rescue the proliferation defect; also recorded: resistant to NAMPT mediated rescue; also recorded: failed to rescue the proliferation deficit when supplemented in conjunction with CVC”, the “increase in wound site proliferation above control response in macrophage-ablated larvae” value ([1]; macrophages ablated with Mtz) was 10.96±3.55% and the “wound site muscle stem cell proliferation” value ([1]; needle stab injury, agent alone) was “specifically enhanced wound-resident muscle stem cell proliferation; also recorded: increases wound site proliferation in control settings”. The “increase in muscle stem cell proliferation within the wound site vs control” value ([1]; needle stab injury, supplementation) was 30.70±4.26%.
